Results reported in patent publication US9573911B2, “Diphosphate mimetics and uses thereof” (President and Fellows of Harvard College, priority 2011, dated 2017).
Blank lines part the entries; values can stand above or below the compound they belong to.

Experiments:
Experiment in all cases: Further kinase screen, Invitrogen Z'-LYTE
Format in all cases: biochemical
Details in all cases: Table 3
CDK2/cyclin A = target: T1, CDK2/cyclin A (Homo sapiens, UniProt P24941)
T1 construct: purchased Invitrogen
Experimental: (§1) Kinase profiling was conducted using Invitrogen Z'-LYTE screening protocol and assay conditions found at www.invitrogen.com. Compound (2) inhibited PLK1 completely at 5 μM.
(§2) A further kinase screen was performed on Compounds (2), (4A), and (4B) using the assay described above.

CAMK4 (CaMKIV) = target: T2, CAMK4 (CaMKIV) (Homo sapiens, UniProt Q16566)
T2 construct: purchased Invitrogen
Experimental: as §1, §2

SGK (SGK1) = target: T3, SGK (SGK1) (Homo sapiens, UniProt O00141)
T3 construct: purchased Invitrogen
T3 sequence (O00141 1-431): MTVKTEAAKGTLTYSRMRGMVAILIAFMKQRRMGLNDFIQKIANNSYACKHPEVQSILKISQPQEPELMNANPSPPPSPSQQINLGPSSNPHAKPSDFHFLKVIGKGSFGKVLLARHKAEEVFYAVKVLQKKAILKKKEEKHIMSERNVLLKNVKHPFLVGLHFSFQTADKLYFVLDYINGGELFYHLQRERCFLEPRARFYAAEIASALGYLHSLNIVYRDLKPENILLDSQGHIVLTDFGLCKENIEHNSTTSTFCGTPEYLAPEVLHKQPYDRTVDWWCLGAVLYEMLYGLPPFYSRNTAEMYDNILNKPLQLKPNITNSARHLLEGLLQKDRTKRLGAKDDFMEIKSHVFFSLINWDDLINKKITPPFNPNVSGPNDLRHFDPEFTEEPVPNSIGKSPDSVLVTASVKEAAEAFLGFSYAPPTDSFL
Experimental: as §1, §2

CAMK2A (CaMKII alpha) = target: T4, CAMK2A (CaMKII alpha) (Homo sapiens, UniProt Q9UQM7)
T4 construct: purchased Invitrogen
Experimental: as §1, §2

CSNK1G3 (CK1 gamma 3) = target: T5, CSNK1G3 (CK1 gamma 3) (Homo sapiens, UniProt Q9Y6M4)
T5 construct: purchased Invitrogen
T5 sequence (Q9Y6M4 whole entry): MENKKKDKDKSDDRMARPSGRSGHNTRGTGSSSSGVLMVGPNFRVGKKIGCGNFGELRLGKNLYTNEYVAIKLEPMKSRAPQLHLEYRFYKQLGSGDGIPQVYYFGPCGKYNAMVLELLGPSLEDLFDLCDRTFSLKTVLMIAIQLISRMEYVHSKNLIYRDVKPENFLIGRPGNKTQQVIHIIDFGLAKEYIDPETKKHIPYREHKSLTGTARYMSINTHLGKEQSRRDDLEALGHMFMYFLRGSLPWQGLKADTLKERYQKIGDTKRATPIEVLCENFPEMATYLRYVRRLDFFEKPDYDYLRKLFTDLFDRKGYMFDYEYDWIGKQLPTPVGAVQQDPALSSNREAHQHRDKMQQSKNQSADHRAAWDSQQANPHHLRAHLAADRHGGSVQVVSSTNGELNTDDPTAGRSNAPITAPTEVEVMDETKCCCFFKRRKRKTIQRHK
Experimental: as §1, §2

GSK3B (GSK3 beta) = target: T6, GSK3B (GSK3 beta) (Homo sapiens, UniProt P49841)
T6 construct: purchased Invitrogen
T6 sequence (P49841 whole entry): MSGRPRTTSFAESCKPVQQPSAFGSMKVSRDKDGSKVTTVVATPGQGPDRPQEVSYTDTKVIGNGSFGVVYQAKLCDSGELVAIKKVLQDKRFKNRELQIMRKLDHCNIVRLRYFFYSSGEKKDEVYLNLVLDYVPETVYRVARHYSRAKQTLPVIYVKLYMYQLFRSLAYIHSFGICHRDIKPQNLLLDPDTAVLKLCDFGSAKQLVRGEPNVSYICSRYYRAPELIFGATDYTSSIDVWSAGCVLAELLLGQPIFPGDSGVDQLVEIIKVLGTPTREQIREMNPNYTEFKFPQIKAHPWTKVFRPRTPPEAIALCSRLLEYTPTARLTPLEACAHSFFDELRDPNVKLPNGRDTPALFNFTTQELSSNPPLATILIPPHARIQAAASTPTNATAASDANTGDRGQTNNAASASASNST
Experimental: as §1, §2

GRK6 = target: T7, GRK6 (Homo sapiens, UniProt P43250)
T7 construct: purchased Invitrogen
T7 sequence (P43250 whole entry): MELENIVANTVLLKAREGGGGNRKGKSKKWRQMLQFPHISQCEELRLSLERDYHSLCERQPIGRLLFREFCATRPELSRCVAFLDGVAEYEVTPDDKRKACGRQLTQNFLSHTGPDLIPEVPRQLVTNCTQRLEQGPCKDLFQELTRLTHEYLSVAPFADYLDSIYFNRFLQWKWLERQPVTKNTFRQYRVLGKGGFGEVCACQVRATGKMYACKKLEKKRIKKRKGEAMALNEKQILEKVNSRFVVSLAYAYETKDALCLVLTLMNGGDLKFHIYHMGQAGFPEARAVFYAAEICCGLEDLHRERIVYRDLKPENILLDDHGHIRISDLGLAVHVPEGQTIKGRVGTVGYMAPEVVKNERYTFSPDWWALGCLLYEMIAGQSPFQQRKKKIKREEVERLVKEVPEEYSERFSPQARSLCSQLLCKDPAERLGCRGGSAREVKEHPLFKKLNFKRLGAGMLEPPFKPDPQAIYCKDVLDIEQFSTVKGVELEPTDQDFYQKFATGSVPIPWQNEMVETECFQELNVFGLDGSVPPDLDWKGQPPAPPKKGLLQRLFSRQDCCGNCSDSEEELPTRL
Experimental: as §1, §2

RPS6KB1 (p70S6K) = target: T8, RPS6KB1 (p70S6K) (Homo sapiens, UniProt P23443)
T8 construct: purchased Invitrogen
T8 sequence (P23443 whole entry): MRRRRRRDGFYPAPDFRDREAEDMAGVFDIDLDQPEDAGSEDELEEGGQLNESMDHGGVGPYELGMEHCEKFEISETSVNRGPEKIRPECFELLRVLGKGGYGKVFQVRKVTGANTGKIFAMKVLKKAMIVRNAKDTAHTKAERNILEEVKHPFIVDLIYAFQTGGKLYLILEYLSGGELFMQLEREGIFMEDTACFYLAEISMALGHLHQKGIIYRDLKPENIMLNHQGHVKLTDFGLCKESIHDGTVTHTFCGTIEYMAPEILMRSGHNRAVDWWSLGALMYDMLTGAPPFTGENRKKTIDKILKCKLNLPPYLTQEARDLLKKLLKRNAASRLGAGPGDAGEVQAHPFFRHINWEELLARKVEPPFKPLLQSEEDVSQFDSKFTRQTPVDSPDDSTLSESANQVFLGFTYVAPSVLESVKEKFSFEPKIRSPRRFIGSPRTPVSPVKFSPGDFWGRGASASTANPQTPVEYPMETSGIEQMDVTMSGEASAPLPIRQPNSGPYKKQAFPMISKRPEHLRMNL
Experimental: as §1, §2

MAPKAPK2 = target: T9, MAPKAPK2 (Homo sapiens, UniProt P49137)
T9 construct: purchased Invitrogen
T9 sequence (P49137 whole entry): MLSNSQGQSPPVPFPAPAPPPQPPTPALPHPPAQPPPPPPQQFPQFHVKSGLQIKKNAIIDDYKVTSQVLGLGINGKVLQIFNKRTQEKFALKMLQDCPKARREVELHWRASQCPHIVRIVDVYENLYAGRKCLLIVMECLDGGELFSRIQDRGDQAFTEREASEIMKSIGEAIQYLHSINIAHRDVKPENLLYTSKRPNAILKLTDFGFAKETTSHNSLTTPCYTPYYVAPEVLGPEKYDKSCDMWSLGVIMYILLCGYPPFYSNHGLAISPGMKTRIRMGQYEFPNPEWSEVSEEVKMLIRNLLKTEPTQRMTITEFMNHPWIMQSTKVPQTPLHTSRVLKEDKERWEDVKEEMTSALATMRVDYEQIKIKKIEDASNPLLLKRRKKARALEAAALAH
Experimental: as §1, §2

SYK = target: T10, SYK (Homo sapiens, UniProt P43405)
T10 construct: purchased Invitrogen
Experimental: as §1, §2

TYK2 = target: T11, TYK2 (Homo sapiens, UniProt P29597)
T11 construct: purchased Invitrogen
T11 sequence (P29597 whole entry): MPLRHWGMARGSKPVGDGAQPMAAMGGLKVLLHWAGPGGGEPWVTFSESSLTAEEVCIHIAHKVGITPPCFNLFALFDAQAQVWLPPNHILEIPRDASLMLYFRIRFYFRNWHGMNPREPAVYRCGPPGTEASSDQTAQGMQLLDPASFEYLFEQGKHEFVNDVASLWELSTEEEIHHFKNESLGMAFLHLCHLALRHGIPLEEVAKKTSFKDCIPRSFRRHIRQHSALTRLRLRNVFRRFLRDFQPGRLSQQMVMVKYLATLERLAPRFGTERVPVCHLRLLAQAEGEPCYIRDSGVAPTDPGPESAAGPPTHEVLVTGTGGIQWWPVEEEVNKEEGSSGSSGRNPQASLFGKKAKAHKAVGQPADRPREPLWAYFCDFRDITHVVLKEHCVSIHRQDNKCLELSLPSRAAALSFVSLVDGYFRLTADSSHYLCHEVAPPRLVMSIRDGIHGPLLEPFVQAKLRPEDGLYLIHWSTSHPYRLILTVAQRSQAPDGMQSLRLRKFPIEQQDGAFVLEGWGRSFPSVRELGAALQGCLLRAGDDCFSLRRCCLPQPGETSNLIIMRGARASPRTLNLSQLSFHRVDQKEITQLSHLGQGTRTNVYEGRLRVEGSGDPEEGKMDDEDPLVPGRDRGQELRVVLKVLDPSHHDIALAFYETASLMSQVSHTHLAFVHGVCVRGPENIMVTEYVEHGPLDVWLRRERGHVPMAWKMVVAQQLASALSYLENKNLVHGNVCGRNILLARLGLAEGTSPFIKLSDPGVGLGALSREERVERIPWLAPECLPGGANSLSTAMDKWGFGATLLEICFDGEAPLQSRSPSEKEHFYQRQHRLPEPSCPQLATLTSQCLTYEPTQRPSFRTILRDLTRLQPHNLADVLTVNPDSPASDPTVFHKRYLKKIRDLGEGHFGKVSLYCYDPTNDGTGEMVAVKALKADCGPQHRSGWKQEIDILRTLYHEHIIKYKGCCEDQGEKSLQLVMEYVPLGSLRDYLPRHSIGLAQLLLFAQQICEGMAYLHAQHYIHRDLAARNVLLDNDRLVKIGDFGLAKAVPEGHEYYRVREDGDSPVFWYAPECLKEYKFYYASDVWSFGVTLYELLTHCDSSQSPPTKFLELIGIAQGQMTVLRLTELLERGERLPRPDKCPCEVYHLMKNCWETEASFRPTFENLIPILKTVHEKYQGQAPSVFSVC
Experimental: as §1, §2

JAK3 = target: T12, JAK3 (Homo sapiens, UniProt P52333)
T12 construct: purchased Invitrogen
T12 sequence (P52333 1-1124): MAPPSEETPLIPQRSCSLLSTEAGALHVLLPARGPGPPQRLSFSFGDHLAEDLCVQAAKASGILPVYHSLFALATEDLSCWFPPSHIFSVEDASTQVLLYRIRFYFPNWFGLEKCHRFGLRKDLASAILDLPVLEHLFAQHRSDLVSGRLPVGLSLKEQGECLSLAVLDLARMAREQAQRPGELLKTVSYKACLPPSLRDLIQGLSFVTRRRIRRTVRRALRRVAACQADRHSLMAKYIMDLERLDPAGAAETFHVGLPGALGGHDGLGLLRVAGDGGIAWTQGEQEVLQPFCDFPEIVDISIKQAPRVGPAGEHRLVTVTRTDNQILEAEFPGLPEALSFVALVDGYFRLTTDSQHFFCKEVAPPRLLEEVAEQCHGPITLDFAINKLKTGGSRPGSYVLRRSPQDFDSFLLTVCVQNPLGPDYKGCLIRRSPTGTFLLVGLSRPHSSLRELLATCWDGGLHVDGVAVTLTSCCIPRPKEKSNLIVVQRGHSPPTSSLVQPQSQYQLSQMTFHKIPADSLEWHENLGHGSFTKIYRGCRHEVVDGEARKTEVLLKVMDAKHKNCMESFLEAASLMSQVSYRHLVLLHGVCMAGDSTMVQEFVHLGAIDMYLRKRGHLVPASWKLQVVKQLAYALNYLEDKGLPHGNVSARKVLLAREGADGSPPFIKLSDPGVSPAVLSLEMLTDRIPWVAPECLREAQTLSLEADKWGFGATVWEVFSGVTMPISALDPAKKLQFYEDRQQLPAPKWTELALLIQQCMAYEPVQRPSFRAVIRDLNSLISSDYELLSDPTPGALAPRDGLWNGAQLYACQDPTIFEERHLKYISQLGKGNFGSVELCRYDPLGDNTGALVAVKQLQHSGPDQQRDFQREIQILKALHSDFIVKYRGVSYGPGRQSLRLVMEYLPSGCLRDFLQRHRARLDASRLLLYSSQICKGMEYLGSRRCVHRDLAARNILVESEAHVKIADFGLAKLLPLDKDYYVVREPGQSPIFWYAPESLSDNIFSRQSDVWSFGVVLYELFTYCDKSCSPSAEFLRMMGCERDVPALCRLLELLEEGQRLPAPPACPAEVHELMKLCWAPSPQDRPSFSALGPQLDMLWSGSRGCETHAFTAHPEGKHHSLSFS
Experimental: as §1, §2

SRPK1 = target: T13, SRPK1 (Homo sapiens, UniProt Q96SB4)
T13 construct: purchased Invitrogen
T13 sequence (Q96SB4 whole entry): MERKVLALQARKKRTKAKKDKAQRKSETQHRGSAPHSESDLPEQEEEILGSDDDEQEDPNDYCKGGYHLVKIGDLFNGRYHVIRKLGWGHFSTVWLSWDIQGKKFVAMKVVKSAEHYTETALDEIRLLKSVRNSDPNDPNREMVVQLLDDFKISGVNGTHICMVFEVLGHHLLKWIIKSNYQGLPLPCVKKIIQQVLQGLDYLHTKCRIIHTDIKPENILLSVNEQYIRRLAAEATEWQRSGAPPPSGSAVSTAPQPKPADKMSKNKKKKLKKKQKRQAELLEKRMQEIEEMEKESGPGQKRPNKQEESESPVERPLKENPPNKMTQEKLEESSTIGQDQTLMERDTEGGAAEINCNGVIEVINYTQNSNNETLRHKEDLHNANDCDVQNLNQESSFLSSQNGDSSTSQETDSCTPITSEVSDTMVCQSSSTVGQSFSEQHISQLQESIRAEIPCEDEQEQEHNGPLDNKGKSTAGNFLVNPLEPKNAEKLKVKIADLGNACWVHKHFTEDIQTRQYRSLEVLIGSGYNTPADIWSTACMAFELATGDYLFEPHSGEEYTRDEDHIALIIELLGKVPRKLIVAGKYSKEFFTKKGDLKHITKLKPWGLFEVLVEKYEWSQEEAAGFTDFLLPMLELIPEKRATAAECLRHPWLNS
Experimental: as §1, §2

RPS6KA3 (RSK2) = target: T14, RPS6KA3 (RSK2) (Homo sapiens, UniProt P51812)
T14 construct: purchased Invitrogen
T14 sequence (P51812 whole entry): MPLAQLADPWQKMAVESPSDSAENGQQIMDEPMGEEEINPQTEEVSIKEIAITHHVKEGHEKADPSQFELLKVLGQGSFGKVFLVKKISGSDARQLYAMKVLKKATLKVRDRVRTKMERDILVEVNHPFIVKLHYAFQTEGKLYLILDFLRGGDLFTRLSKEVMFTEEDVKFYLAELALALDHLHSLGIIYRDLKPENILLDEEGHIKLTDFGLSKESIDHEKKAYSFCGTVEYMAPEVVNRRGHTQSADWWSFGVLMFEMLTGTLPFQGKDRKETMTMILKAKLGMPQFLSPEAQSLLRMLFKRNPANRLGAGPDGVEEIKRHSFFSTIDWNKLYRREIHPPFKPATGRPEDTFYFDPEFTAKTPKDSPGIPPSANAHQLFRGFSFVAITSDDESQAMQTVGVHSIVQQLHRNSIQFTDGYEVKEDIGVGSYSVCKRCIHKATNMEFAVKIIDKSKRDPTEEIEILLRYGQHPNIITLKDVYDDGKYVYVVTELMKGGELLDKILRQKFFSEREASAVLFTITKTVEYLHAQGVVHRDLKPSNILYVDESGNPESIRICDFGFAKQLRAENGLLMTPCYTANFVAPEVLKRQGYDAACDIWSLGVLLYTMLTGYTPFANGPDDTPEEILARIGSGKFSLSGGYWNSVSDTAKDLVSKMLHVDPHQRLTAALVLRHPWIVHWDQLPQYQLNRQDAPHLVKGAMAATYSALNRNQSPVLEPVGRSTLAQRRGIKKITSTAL
Experimental: as §1, §2

SMILES: COc1ccc(OC(=O)n2c(=O)oc3cc(C(C)=O)ccc32)cc1 [Compound 2]
% Inhibition Point 1 (CDK2/cyclin A): −297%
% Inhibition Point 2 (CDK2/cyclin A): −301%
% Inhibition mean (CDK2/cyclin A): −299%
% Inhibition Point 1 (CAMK4 (CaMKIV)): −159%
% Inhibition Point 2 (CAMK4 (CaMKIV)): −201%
% Inhibition mean (CAMK4 (CaMKIV)): −180%
% Inhibition Point 1 (SGK (SGK1)): −234%
% Inhibition Point 2 (SGK (SGK1)): −237%
% Inhibition mean (SGK (SGK1)): −236%
% Inhibition Point 1 (CAMK2A (CaMKII alpha)): −14%
% Inhibition Point 2 (CAMK2A (CaMKII alpha)): −10%
% Inhibition mean (CAMK2A (CaMKII alpha)): −12%
% Inhibition Point 1 (CSNK1G3 (CK1 gamma 3)): 13%
% Inhibition Point 2 (CSNK1G3 (CK1 gamma 3)): 16%
% Inhibition mean (CSNK1G3 (CK1 gamma 3)): 14%
% Inhibition Point 1 (GSK3B (GSK3 beta)): −7%
% Inhibition Point 2 (GSK3B (GSK3 beta)): 0%
% Inhibition mean (GSK3B (GSK3 beta)): −4%
% Inhibition Point 1 (GRK6): 14%
% Inhibition Point 2 (GRK6): 17%
% Inhibition mean (GRK6): 16%
% Inhibition Point 1 (RPS6KB1 (p70S6K)): −138%
% Inhibition Point 2 (RPS6KB1 (p70S6K)): −122%
% Inhibition mean (RPS6KB1 (p70S6K)): −130%
% Inhibition Point 1 (MAPKAPK2): 0%
% Inhibition Point 2 (MAPKAPK2): −10%
% Inhibition mean (MAPKAPK2): −5%
% Inhibition Point 1 (SYK): 4%
% Inhibition Point 2 (SYK): −4%
% Inhibition mean (SYK): 0%
% Inhibition Point 1 (TYK2): −98%
% Inhibition Point 2 (TYK2): −99%
% Inhibition mean (TYK2): −99%
% Inhibition Point 1 (JAK3): −90%
% Inhibition Point 2 (JAK3): −83%
% Inhibition mean (JAK3): −86%
% Inhibition Point 1 (SRPK1): −49%
% Inhibition Point 2 (SRPK1): −38%
% Inhibition mean (SRPK1): −44%
% Inhibition Point 1 (RPS6KA3 (RSK2)): −200%
% Inhibition Point 2 (RPS6KA3 (RSK2)): −212%
% Inhibition mean (RPS6KA3 (RSK2)): −206%

% Inhibition Point 1 (CDK2/cyclin A): 9%
% Inhibition Point 2 (CDK2/cyclin A): 9%
% Inhibition mean (CDK2/cyclin A): 9%
% Inhibition Point 1 (CAMK4 (CaMKIV)): 18%
% Inhibition Point 2 (CAMK4 (CaMKIV)): 24%
% Inhibition mean (CAMK4 (CaMKIV)): 21%
% Inhibition Point 1 (SGK (SGK1)): 76%
% Inhibition Point 2 (SGK (SGK1)): 75%
% Inhibition mean (SGK (SGK1)): 76%
% Inhibition Point 1 (CAMK2A (CaMKII alpha)): 20%
% Inhibition Point 2 (CAMK2A (CaMKII alpha)): 24%
% Inhibition mean (CAMK2A (CaMKII alpha)): 22%
% Inhibition Point 1 (CSNK1G3 (CK1 gamma 3)): 30%
% Inhibition Point 2 (CSNK1G3 (CK1 gamma 3)): 31%
% Inhibition mean (CSNK1G3 (CK1 gamma 3)): 31%
% Inhibition Point 1 (GSK3B (GSK3 beta)): 61%
% Inhibition Point 2 (GSK3B (GSK3 beta)): 60%
% Inhibition mean (GSK3B (GSK3 beta)): 60%
% Inhibition Point 1 (GRK6): 42%
% Inhibition Point 2 (GRK6): 43%
% Inhibition mean (GRK6): 42%
% Inhibition Point 1 (RPS6KB1 (p70S6K)): 19%
% Inhibition Point 2 (RPS6KB1 (p70S6K)): 22%
% Inhibition mean (RPS6KB1 (p70S6K)): 21%
% Inhibition Point 1 (MAPKAPK2): 48%
% Inhibition Point 2 (MAPKAPK2): 53%
% Inhibition mean (MAPKAPK2): 51%
% Inhibition Point 1 (SYK): 21%
% Inhibition Point 2 (SYK): 24%
% Inhibition mean (SYK): 23%
% Inhibition Point 1 (TYK2): 7%
% Inhibition Point 2 (TYK2): 11%
% Inhibition mean (TYK2): 9%
% Inhibition Point 1 (JAK3): 41%
% Inhibition Point 2 (JAK3): 30%
% Inhibition mean (JAK3): 36%
% Inhibition Point 1 (SRPK1): −6%
% Inhibition Point 2 (SRPK1): 2%
% Inhibition mean (SRPK1): −2%
% Inhibition Point 1 (RPS6KA3 (RSK2)): 55%
% Inhibition Point 2 (RPS6KA3 (RSK2)): 56%
% Inhibition mean (RPS6KA3 (RSK2)): 55%
SMILES: COc1ccc(OC(=S)n2c(=O)oc3cc(C(C)=O)ccc32)cc1 [Compound 4A]

% Inhibition Point 1 (CDK2/cyclin A): −2%
% Inhibition Point 2 (CDK2/cyclin A): 4%
% Inhibition mean (CDK2/cyclin A): 1%
% Inhibition Point 1 (CAMK4 (CaMKIV)): 52%
% Inhibition Point 2 (CAMK4 (CaMKIV)): 46%
% Inhibition mean (CAMK4 (CaMKIV)): 49%
% Inhibition Point 1 (SGK (SGK1)): 72%
% Inhibition Point 2 (SGK (SGK1)): 73%
% Inhibition mean (SGK (SGK1)): 73%
% Inhibition Point 1 (CAMK2A (CaMKII alpha)): 57%
% Inhibition Point 2 (CAMK2A (CaMKII alpha)): 55%
% Inhibition mean (CAMK2A (CaMKII alpha)): 56%
% Inhibition Point 1 (CSNK1G3 (CK1 gamma 3)): 51%
% Inhibition Point 2 (CSNK1G3 (CK1 gamma 3)): 48%
% Inhibition mean (CSNK1G3 (CK1 gamma 3)): 49%
% Inhibition Point 1 (GSK3B (GSK3 beta)): 92%
% Inhibition Point 2 (GSK3B (GSK3 beta)): 93%
% Inhibition mean (GSK3B (GSK3 beta)): 93%
% Inhibition Point 1 (GRK6): 71%
% Inhibition Point 2 (GRK6): 71%
% Inhibition mean (GRK6): 71%
% Inhibition Point 1 (RPS6KB1 (p70S6K)): 35%
% Inhibition Point 2 (RPS6KB1 (p70S6K)): 44%
% Inhibition mean (RPS6KB1 (p70S6K)): 40%
% Inhibition Point 1 (MAPKAPK2): 90%
% Inhibition Point 2 (MAPKAPK2): 90%
% Inhibition mean (MAPKAPK2): 90%
% Inhibition Point 1 (SYK): 58%
% Inhibition Point 2 (SYK): 54%
% Inhibition mean (SYK): 56%
% Inhibition Point 1 (TYK2): 17%
% Inhibition Point 2 (TYK2): 21%
% Inhibition mean (TYK2): 19%
% Inhibition Point 1 (JAK3): 65%
% Inhibition Point 2 (JAK3): 64%
% Inhibition mean (JAK3): 65%
% Inhibition Point 1 (SRPK1): 0%
% Inhibition Point 2 (SRPK1): 2%
% Inhibition mean (SRPK1): 1%
% Inhibition Point 1 (RPS6KA3 (RSK2)): 58%
% Inhibition Point 2 (RPS6KA3 (RSK2)): 64%
% Inhibition mean (RPS6KA3 (RSK2)): 61%
SMILES: COc1ccc(OC(=O)n2c(=S)oc3cc(C(C)=O)ccc32)cc1 [Compound 4B]
